The numbers were not newly measured in US7884090B2, “Compositions and methods for the treatment of arthritis” (priority 1999, dated 2011), which cites them from elsewhere.

The structures appear in SMILES notation.

For data set [1], the system named is Staph haemolyticus, Staph hominis, Acinetobacter Iwoffi and further listed species up to Yersinia enterocolitica. The settings on record: in vitro.
Data set [2] relates to pseudomonas aeruginosa, methicillin-resistant strains of Staph. aureus and Proteus.

On to `O=C(O)c1cn(C2CC2)c2cc(N3CCNCC3)c(F)cc2c1=O` [cipro, ciprofloxacin], for which, in data set [1], the “Strains against which effective” value was 90%.

Turning to `CCN[C@@H]1C[C@H](N)[C@@H](O[C@H]2OC(CN)=CC[C@H]2N)[C@H](O)[C@H]1O[C@H]1OC[C@](C)(O)[C@H](NC)[C@H]1O` [netilmicin], the “Strains against which active” value in data set [2] was 85%.
